Assay results reported in US20230000813A1, “COMPOUND FOR THE TREATMENT OF BOVINE OR SWINE RESPIRATORY DISEASE” (Intervet Inc., priority 2016, published 2023).
Converted amounts (≈) assume the structure as drawn. Where two headings read alike, the source gives them in different places.

Assays:
Test in all cases: MIC, broth-microdilution (CLSI VET01-A4)
Type in all cases: cell-based
[1] = tested on: Mannheimia haemolytica MH 13093 (XB0472-6014.1, BRD field isolate)
Protocol: (§1) The Minimum inhibitory concentrations (MIC) of compounds according to the invention for a number of veterinary bacterial pathogens were determined by the broth-microdilution method according to CLSI document VET01-A4.
(§2) Microdilution trays containing a doubling dilution series of the test compound were used for the tests. The MIC results were interpreted according to the CLSI documents VET01-S3. The lowest concentration of compound at which no visible growth (i.e. no turbidity) detected by the unaided eye was recorded as the MIC.

[2] = tested on: Mannheimia haemolytica MH 13065 (XB0446-6003.9, BRD field isolate)
Protocol: as §1, §2

[3] = tested on: Mannheimia haemolytica MH 6374 (ATCC 33396, reference strain); conditions: Mannheimia haemolytica MH 6374, read-out: MIC MH 6374
Protocol: as §1, §2
(§3) The Minimum inhibitory concentrations (MIC) of compounds according to the invention were determined by the broth-microdilution method according to CLSI document VET01-A4.
(§4) Microdilution trays containing a doubling dilution series of the test compound were used for the tests.
(§5) The MIC results were interpreted according to the CLSI documents VET01-S3. The lowest concentration of compound at which no visible growth (i.e. no turbidity) detected by the unaided eye was recorded as the MIC.

[4] = tested on: Mannheimia haemolytica MH 10720 (154, BRD field isolate); conditions: Mannheimia haemolytica MH 10720; for MIC: read-out: MIC MH 10720
Protocol: as §1, §2, §3, §4, §5

[5] = tested on: Mannheimia haemolytica MH 6357 (M7/2, reference strain, cattle infection strain); conditions: Mannheimia haemolytica MH 6357; read-out: MIC MH 6357
Protocol: as §1, §2, §3, §4, §5

[6] = tested on: Pasteurella multocida PM 6267 (P 2225 (L386), reference strain, mouse infection strain); conditions: Pasteurella multocida PM 6267; for MIC: read-out: MIC PM 6267
Protocol: as §1, §2, §3, §4, §5

[7] = tested on: Mannheimia haemolytica MH 12587 (1071, BRD field isolate, macrolide-resistance: erm+, E+); conditions: Mannheimia haemolytica MH 12587, macrolide-resistant
Protocol: as §1, §2, §3, §4, §5

[8] = tested on: Pasteurella multocida PM 6391 (ATCC 43137, reference strain); conditions: Pasteurella multocida PM 6391; for MIC: read-out: MIC PM 6391
Protocol: as §1, §2, §3, §4, §5

[9] = tested on: Pasteurella multocida PM 12080 (IV102277-0093, BRD field isolate); conditions: Pasteurella multocida PM 12080; for MIC: read-out: MIC PM 12080
Protocol: as §1, §2, §3, §4, §5

[10] = tested on: Pasteurella multocida PM 10775 (080130003051, BRD field isolate); conditions: Pasteurella multocida PM 10775
Protocol: as §1, §2, §3, §4, §5

SMILES	MIC [1] [µM]	MIC [2] [µM]	MIC [3] [µM]	MIC [4] [µM]	MIC [5] [µM]	MIC [6] [µM]	MIC MH 12587 [7] [µM]	MIC [8] [µM]	MIC PM 12080 [9]	MIC PM 6391 [8]	MIC PM 6267 [6]	MIC PM 10775 [10]	MIC [9] [µM]	MIC MH 10720 [4]	MIC ([3]; ATCC33396) [µM]	MIC ([8]; ATCC43137) [µM]
CC(C)(N)C(NC(=O)c1ccc(C#Cc2ccc(CNCc3ccco3)nc2)cc1)C(=O)NO (racemic) [Compound 548]	1.6 (≈ 0.738 µg/mL)	0.8 (≈ 0.369 µg/mL)	0.8 (≈ 0.369 µg/mL)	0.2 (≈ 0.0923 µg/mL)	1.6 (≈ 0.738 µg/mL)	1.6 (≈ 0.738 µg/mL)	1.6 (≈ 0.738 µg/mL)	0.2 (≈ 0.0923 µg/mL)	<=0.1 μM							
CC(C)(N)C(NC(=O)c1ccc(C#Cc2ccc(CNCc3cccs3)nc2)cc1)C(=O)NO (racemic) [Compound 549]	1.6 (≈ 0.764 µg/mL)	0.8 (≈ 0.382 µg/mL)	0.4 (≈ 0.191 µg/mL)	0.4 (≈ 0.191 µg/mL)	0.8 (≈ 0.382 µg/mL)	0.8 (≈ 0.382 µg/mL)	1.6 (≈ 0.764 µg/mL)		<=0.1 μM	<=0.1 μM						
C[C@@H](O)[C@H](NC(=O)c1ccc(C#Cc2ccc(CNCC3CCCO3)s2)cc1)C(=O)NO (stereo partly shown) [C. 412]	1.6 (≈ 0.732 µg/mL)	0.8 (≈ 0.366 µg/mL)	0.8 (≈ 0.366 µg/mL)		0.8 (≈ 0.366 µg/mL)		1.6 (≈ 0.732 µg/mL)	0.2 (≈ 0.0915 µg/mL)			<=0.1 μM	<=0.1 μM	0.4 (≈ 0.183 µg/mL)			
C[C@@H](O)[C@H](NC(=O)c1ccc(C#Cc2ccc(CNC3CC3)nc2)cc1)C(=O)NO [C. 413]	0.4 (≈ 0.163 µg/mL)	0.4 (≈ 0.163 µg/mL)	0.8 (≈ 0.327 µg/mL)		0.4 (≈ 0.163 µg/mL)		0.8 (≈ 0.327 µg/mL)		<=0.1 μM	<=0.1 μM	<=0.1 μM	<=0.1 μM				
CC(C)(N)C(NC(=O)c1ccc(C#Cc2ccc(CNCc3ccco3)cc2)cc1)C(=O)NO (stereo not shown) [C. 518]	0.8 (≈ 0.368 µg/mL)	0.8 (≈ 0.368 µg/mL)	0.4 (≈ 0.184 µg/mL)		0.8 (≈ 0.368 µg/mL)	0.8 (≈ 0.368 µg/mL)	0.8 (≈ 0.368 µg/mL)		<=0.1 μM					<=0.1 μM		
CC(C)(N)C(NC(=O)c1ccc(C#Cc2ccc(CNC3CC3)s2)cc1)C(=O)NO (stereo not shown) [C. 521]	0.8 (≈ 0.341 µg/mL)	1.6 (≈ 0.682 µg/mL)	0.4 (≈ 0.171 µg/mL)		0.8 (≈ 0.341 µg/mL)	0.8 (≈ 0.341 µg/mL)	0.8 (≈ 0.341 µg/mL)		<=0.1 μM	<=0.1 μM				<=0.1 μM		
C=CCNCc1ccc(C#Cc2ccc(C(=O)NC(C(=O)NO)C(C)(C)N)cc2)s1 (stereo not shown) [C. 522]	1.6 (≈ 0.682 µg/mL)	0.8 (≈ 0.341 µg/mL)	0.4 (≈ 0.171 µg/mL)	0.2 (≈ 0.0853 µg/mL)	1.6 (≈ 0.682 µg/mL)	1.6 (≈ 0.682 µg/mL)	1.6 (≈ 0.682 µg/mL)	0.2 (≈ 0.0853 µg/mL)	<=0.1 μM							
CC(C)(N)C(NC(=O)c1ccc(C#Cc2ccc([N+](=O)[O-])cc2)cc1)C(=O)NO (stereo not shown) [C. 552, N-[2-amino-1-(hydroxycarbamoyl)-2-methyl-propyl]-4-[2-(4-nitrophenyl)ethynyl]benzamide]	0.8 (≈ 0.317 µg/mL)	0.8 (≈ 0.317 µg/mL)		0.2 (≈ 0.0793 µg/mL)	0.8 (≈ 0.317 µg/mL)	0.8 (≈ 0.317 µg/mL)							≤ 0.1		0.2 (≈ 0.0793 µg/mL)	≤ 0.1
CC(C)(N)C(NC(=O)c1ccc(C#Cc2ccc(N)cc2)cc1)C(=O)NO (stereo not shown) [C. 553, N-(3-amino-1-(hydroxyamino)-3-methyl-1-oxobutan-2-yl)-4-((4-aminophenyl)ethynyl)benzamide]	0.8 (≈ 0.293 µg/mL)	1.6 (≈ 0.586 µg/mL)		0.2 (≈ 0.0733 µg/mL)	0.8 (≈ 0.293 µg/mL)	0.8 (≈ 0.293 µg/mL)							≤ 0.1		0.4 (≈ 0.147 µg/mL)	≤ 0.1
COc1ccc(CNCc2ccc(C#Cc3ccc(C(=O)NC(C(=O)NO)C(C)(C)N)cc3)cc2)cc1 (stereo not shown) [Compound 513]	1.6 (≈ 0.801 µg/mL)	1.6 (≈ 0.801 µg/mL)	0.8 (≈ 0.4 µg/mL)	0.2 (≈ 0.1 µg/mL)	1.6 (≈ 0.801 µg/mL)	1.6 (≈ 0.801 µg/mL)	1.6 (≈ 0.801 µg/mL)	0.2 (≈ 0.1 µg/mL)					0.2 (≈ 0.1 µg/mL)			
COCCNCc1ccc(C#Cc2ccc(C(=O)NC(C(=O)NO)C(C)(C)N)cc2)s1 (stereo not shown) [Compound 523]	1.6 (≈ 0.711 µg/mL)	1.6 (≈ 0.711 µg/mL)	0.8 (≈ 0.356 µg/mL)	0.4 (≈ 0.178 µg/mL)	1.6 (≈ 0.711 µg/mL)		1.6 (≈ 0.711 µg/mL)	0.2 (≈ 0.0889 µg/mL)	<=0.1 μM							
CC(C)(N)C(NC(=O)c1ccc(C#Cc2ccc(CNCc3ccccc3)s2)cc1)C(=O)NO (stereo not shown) [Compound 525]	0.8 (≈ 0.381 µg/mL)	0.8 (≈ 0.381 µg/mL)	0.4 (≈ 0.191 µg/mL)	0.2 (≈ 0.0953 µg/mL)	0.8 (≈ 0.381 µg/mL)	1.6 (≈ 0.763 µg/mL)	1.6 (≈ 0.763 µg/mL)	0.2 (≈ 0.0953 µg/mL)	<=0.1 μM							
COc1ccc(CNCc2ccc(C#Cc3ccc(C(=O)NC(C(=O)NO)C(C)(C)N)cc3)s2)cc1 (stereo not shown) [Compound 526]	1.6 (≈ 0.811 µg/mL)	0.8 (≈ 0.405 µg/mL)	0.4 (≈ 0.203 µg/mL)	0.2 (≈ 0.101 µg/mL)	0.8 (≈ 0.405 µg/mL)	1.6 (≈ 0.811 µg/mL)	1.6 (≈ 0.811 µg/mL)	0.2 (≈ 0.101 µg/mL)					0.2 (≈ 0.101 µg/mL)			
CC(C)(N)C(NC(=O)c1ccc(C#Cc2ccc(CNCc3ccncc3)s2)cc1)C(=O)NO (stereo not shown) [Compound 527]	1.6 (≈ 0.764 µg/mL)	0.8 (≈ 0.382 µg/mL)	0.8 (≈ 0.382 µg/mL)	0.2 (≈ 0.0955 µg/mL)	0.8 (≈ 0.382 µg/mL)	1.6 (≈ 0.764 µg/mL)	0.8 (≈ 0.382 µg/mL)		<=0.1 μM	<=0.1 μM						
CC(C)(N)C(NC(=O)c1ccc(C#Cc2ccc(CNCc3cccnc3)s2)cc1)C(=O)NO (stereo not shown) [Compound 532]	1.6 (≈ 0.764 µg/mL)	0.8 (≈ 0.382 µg/mL)	0.8 (≈ 0.382 µg/mL)	0.2 (≈ 0.0955 µg/mL)	1.6 (≈ 0.764 µg/mL)	1.6 (≈ 0.764 µg/mL)	1.6 (≈ 0.764 µg/mL)		<=0.1 μM	<=0.1 μM						
CC(C)(N)C(NC(=O)c1ccc(C#Cc2ccc(CNCc3ccnc(Cl)c3)s2)cc1)C(=O)NO (stereo not shown) [Compound 533]	0.8 (≈ 0.41 µg/mL)	0.8 (≈ 0.41 µg/mL)	0.8 (≈ 0.41 µg/mL)	0.2 (≈ 0.102 µg/mL)	0.8 (≈ 0.41 µg/mL)	1.6 (≈ 0.819 µg/mL)	1.6 (≈ 0.819 µg/mL)	0.2 (≈ 0.102 µg/mL)	<=0.1 μM							
CC(C)(N)C(NC(=O)c1ccc(C#Cc2ccc(CNCc3ccccn3)s2)cc1)C(=O)NO (stereo not shown) [Compound 534]	1.6 (≈ 0.764 µg/mL)	0.8 (≈ 0.382 µg/mL)	0.8 (≈ 0.382 µg/mL)	0.2 (≈ 0.0955 µg/mL)	0.8 (≈ 0.382 µg/mL)	1.6 (≈ 0.764 µg/mL)	1.6 (≈ 0.764 µg/mL)		<=0.1 μM	<=0.1 μM						
CC(C)(N)C(NC(=O)c1ccc(C#Cc2ccc(CNCc3ccco3)s2)cc1)C(=O)NO (stereo not shown) [Compound 535]	0.8 (≈ 0.373 µg/mL)	0.4 (≈ 0.187 µg/mL)	0.2 (≈ 0.0933 µg/mL)		0.8 (≈ 0.373 µg/mL)	0.8 (≈ 0.373 µg/mL)	0.8 (≈ 0.373 µg/mL)		<=0.1 μM	<=0.1 μM				<=0.1 μM		
CC(C)(N)C(NC(=O)c1ccc(C#Cc2ccc(CNCc3cccs3)s2)cc1)C(=O)NO (stereo not shown) [Compound 536]	0.8 (≈ 0.386 µg/mL)	0.4 (≈ 0.193 µg/mL)	0.2 (≈ 0.0965 µg/mL)		0.8 (≈ 0.386 µg/mL)	0.8 (≈ 0.386 µg/mL)	0.8 (≈ 0.386 µg/mL)		<=0.1 μM	<=0.1 μM				<=0.1 μM		
Cc1ccc(CNCc2ccc(C#Cc3ccc(C(=O)NC(C(=O)NO)C(C)(C)N)cc3)s2)cc1 (stereo not shown) [Compound 537]	1.6 (≈ 0.785 µg/mL)	0.8 (≈ 0.393 µg/mL)	0.8 (≈ 0.393 µg/mL)	0.2 (≈ 0.0981 µg/mL)	0.8 (≈ 0.393 µg/mL)	1.6 (≈ 0.785 µg/mL)	1.6 (≈ 0.785 µg/mL)	0.2 (≈ 0.0981 µg/mL)	<=0.1 μM							
CC(C)(C(NC(=O)c1ccc(C#Cc2ccc(CNC3CC3)cc2)cc1)C(=O)NO)[N+](=O)[O-] (stereo not shown) [Compound 554]	0.4 (≈ 0.18 µg/mL)	0.4 (≈ 0.18 µg/mL)	0.4 (≈ 0.18 µg/mL)		0.4 (≈ 0.18 µg/mL)	0.4 (≈ 0.18 µg/mL)	0.8 (≈ 0.36 µg/mL)		<=0.1 μM					<=0.1 μM		
